These results are taken from patent US11203613B2, “Peptidomimetic proteasome inhibitors” (CORNELL UNIVERSITY, priority 2017, dated 2021).

For the experiment, the target named is Human Constitutive (Hu C-20S) β5 Active Subunit (Homo sapiens, UniProt P28074). Nature of the experiment: IC50 determination, human constitutive 20S proteasome β5c (suc-LLVY-AMC hydrolysis). The class given is biochemical. To be noted: Table 3; IC50 against human constitutive β5 active subunit; read-out: Hu-C20S β5.
As to `CC(C)CCC(=O)N[C@@H](CC(=O)N1CCC[C@@H]1c1ccccc1)C(=O)N[C@H](C)c1nc2ccccc2[nH]1` [CEN-49, N—((S)-1-(((R)-1-(1H-Benzo[d]imidazol-2-yl)ethyl)amino)-1,4-dioxo-4-((R)-2-phenylpyrrolidin-1-yl)butan-2-yl)-4-methylpentanamide], the IC50 is 50 µM. For `C[C@H](NC(=O)[C@H](CC(=O)N1CCCC[C@@H]1C)NC(=O)OCc1ccccc1)c1nc2c(F)cccc2[nH]1` [CEN-50, Benzyl ((S)-1-(((S)-1-(4-Fluoro-1H-benzo[d]Imidazol-2-yl)ethyl)amino)-4-((S)-2-methylpiperidin-1-yl)-1,4-dioxobutan-2-yl)carbamate] the value was 14.8 µM; for `C[C@H](NC(=O)[C@H](CC(=O)N1CCCC1C1CC1)NC(=O)C1CC2(COC2)C1)c1nc2cccc(F)c2[nH]1` (stereo partly drawn) [CEN-51, N-((2S)-4-(2-Cyclopropylpyrrolidin-1-yl)-1-(((S)-1-(7-fluoro-1H-benzo[d]imidazol-2-yl)ethyl)amino)-1,4-dioxobutan-2-yl)-2-oxaspiro[3.3]heptane-6-carboxamide], 15 µM. As for `Cc1cc(C(=O)N[C@@H](CC(=O)N2CCC[C@@H]2c2ccccc2)C(=O)NC(C)c2nc3ccccc3[nH]2)no1` (stereo partly drawn) [CEN-52, N-((2S)-1-((1-(1H-Benzo[d]imidazol-2-yl)ethyl)amino)-1,4-dioxo-4-((R)-2-phenylpyrrolidin-1-yl)butan-2-yl)-5-methylisoxazole-3-carboxamide], the IC50 is 7.5 µM. For `Cc1cc(C(=O)N[C@@H](CC(=O)N2CCC[C@@H]2c2ccccc2)C(=O)N[C@@H](C)c2nc3ccccc3[nH]2)no1` [CEN-53, N—((S)-1-(((S)-1-(1H-Benzo[d]imidazol-2-yl)ethyl)amino)-1,4-dioxo-4-((R)-2-phenylpyrrolidin-1-yl)butan-2-yl)-5-methylisoxazole-3-carboxamide] the value was 9.7 µM. Turning to `C[C@H](NC(=O)[C@H](CC(=O)N1CCC[C@@H]1c1ccccc1)NC(=O)CCC(C)(C)C)c1nc2ccccc2[nH]1` [CEN-54, N—((S)-1-(((S)-1-(1H-Benzo[d]imidazol-2-yl)ethyl)amino)-1,4-dioxo-4-((R)-2-phenylpyrrolidin-1-yl)butan-2-yl)-4,4-dimethylpentanamide], the IC50 was found to be 16.6 µM.

In the case of `C[C@H](NC(=O)[C@H](CC(=O)N1CCCC[C@@H]1C)NC(=O)[C@H]1C[C@@H]1c1ccccc1)c1nc2c(F)cccc2[nH]1` [CEN-55, (1S,2S)—N—((S)-1-(((S)-1-(4-Fluoro-1H-benzo[d]Imidazol-2-yl)ethyl)amino)-4-((S)-2-methylpiperidin-1-yl)-1,4-dioxobutan-2-yl)-2-phenylcyclopropane-1-carboxamide], the IC50 stood at 12.3 µM. Turning to `C[C@H](NC(=O)[C@H](CC(=O)N1CCCC[C@@H]1C)NC(=O)N(C)Cc1ccccc1)c1nc2c(F)cccc2[nH]1` [CEN-56, (S)-2-(3-Benzyl-3-methylureido)-N—((S)-1-(4-fluoro-1H-benzo[d]imidazol-2-yl)ethyl)-4-((S)-2-methylpiperidin-1-yl)-4-oxobutanamide], the IC50 was determined as 17.2 µM. In the case of `C[C@H](NC(=O)[C@H](CC(=O)N1CCCC[C@@H]1C)NC(=O)C1CC2(C1)CC(F)(F)C2)c1nc2c(F)cccc2[nH]1` [CEN-57, 6,6-Difluoro-N—((S)-1-(((S)-1-(4-fluoro-1H-benzo[d]imidazol-2-yl)ethyl)amino)-4-((S)-2-methylpiperidin-1-yl)-1,4-dioxobutan-2-yl)spiro[3.3]heptane-2-carboxamide], the IC50 was found to be 28 µM. For `CC(C)CCS(=O)(=O)N[C@@H](CC(=O)N1CCC[C@@H]1c1ccccc1)C(=O)NC(C)c1nc2ccccc2[nH]1` (stereo partly drawn) [CEN-58, (2S)—N-(1-(1H-Benzo[d]imidazol-2-yl)ethyl)-2-((3-methylbutyl)sulfonamido)-4-oxo-4-((R)-2-phenylpyrrolidin-1-yl)butanamide] the value was 13.9 µM; for `CC(C)CCS(=O)(=O)N[C@@H](CC(=O)N1CCC[C@@H]1c1ccccc1)C(=O)N[C@@H](C)c1nc2ccccc2[nH]1` [CEN-59, (S)—N—((S)-1-(1H-Benzo[d]imidazol-2-yl)ethyl)-2-((3-methylbutyl)sulfonamido)-4-oxo-4-((R)-2-phenylpyrrolidin-1-yl)butanamide], 10 µM; for `CC(C)CCS(=O)(=O)N[C@@H](CC(=O)N1CCC[C@@H]1c1ccccc1)C(=O)N[C@H](C)c1nc2ccccc2[nH]1` [CEN-60, (S)—N—((R)-1-(1H-Benzo[d]imidazol-2-yl)ethyl)-2-((3-methylbutyl)sulfonamido)-4-oxo-4-((R)-2-phenylpyrrolidin-1-yl)butanamide], 10.7 µM. With `C[C@H](NC(=O)[C@H](CC(=O)N1CCCC1C1CC1)NC(=O)C1CC2(C1)CC(F)(F)C2)c1nc2cccc(F)c2[nH]1` (stereo partly drawn) [CEN-61, N-((2S)-4-(2-Cyclopropylpyrrolidin-1-yl)-1-(((S)-1-(7-fluoro-1H-benzo[d]imidazol-2-yl)ethyl)amino)-1,4-dioxobutan-2-yl)-6,6-difluorospiro[3.3]heptane-2-carboxamide], the IC50 stood at 8.8 µM. On to `C[C@H](NC(=O)[C@H](CC(=O)N1CCC[C@H]1c1ccccc1)NC(=O)C1CC2(COC2)C1)c1nc2cccc(F)c2[nH]1` [CEN-63, N—((S)-1-(((S)-1-(7-Fluoro-1H-benzo[d]imidazol-2-yl)ethyl)amino)-1,4-dioxo-4-((S)-2-phenylpyrrolidin-1-yl)butan-2-yl)-2-oxaspiro[3.3]heptane-6-carboxamide], for which the IC50 amounted to 6.8 µM. `O=C(N[C@@H](CC(=O)N1CCCC1C1CC1)C(=O)NC1(c2nc3cccc(F)c3[nH]2)CC1)C1CC2(C1)CC(F)(F)C2` (stereo partly drawn) [CEN-64, N-((2S)-4-(2-Cyclopropylpyrrolidin-1-yl)-1-((1-(7-fluoro-1H-benzo[d]imidazol-2-yl)cyclopropyl)amino)-1,4-dioxobutan-2-yl)-6,6-difluorospiro[3.3]heptane-2-carboxamide]: the IC50 was found to be 2.4 µM.

`C[C@H](NC(=O)[C@H](CC(=O)N1CCC[C@@H]1c1ccccc1)NC(=O)CCCC(F)(F)F)c1nc2ccccc2n1C` [CEN-65, 5,5,5-Trifluoro-N—((S)-1-(((S)-1-(1-methyl-1H-benzo[d]imidazol-2-yl)ethyl)amino)-1,4-dioxo-4-((R)-2-phenylpyrrolidin-1-yl)butan-2-yl)pentanamide]: the IC50 was greater than 100 µM.

Turning to `C[C@H](NC(=O)[C@H](CC(=O)N1CCC[C@@H]1c1ccccc1)NC(=O)CCCC(F)(F)F)c1nc2ccccc2o1` [CEN-66, N—((S)-1-(((S)-1-(Benzo[d]oxazol-2-yl)ethyl)amino)-1,4-dioxo-4-((R)-2-phenylpyrrolidin-1-yl)butan-2-yl)-5,5,5-trifluoropentanamide], the IC50 was greater than 100 µM. For `C[C@H](NC(=O)[C@H](CC(=O)N1CCC[C@@H]1c1ccccc1)NC(=O)CCCC(F)(F)F)c1nc2ccccc2s1` [CEN-67, N—((S)-1-(((S)-1-(Benzo[d]thiazol-2-yl)ethyl)amino)-1,4-dioxo-4-((R)-2-phenylpyrrolidin-1-yl)butan-2-yl)-5,5,5-trifluoropentanamide] the value was greater than 100 µM.

Consider `C[C@H](NC(=O)[C@H](CC(=O)N1CCC[C@@H]1c1ccccc1)NC(=O)C1CC2(C1)CC(F)(F)C2)c1nc2ccccc2o1` [CEN-68, N—((S)-1-(((S)-1-(Benzo[d]oxazol-2-yl)ethyl)amino)-1,4-dioxo-4-((R)-2-phenylpyrrolidin-1-yl)butan-2-yl)-6,6-difluorospiro[3.3]heptane-2-carboxamide], for which the IC50 is greater than 100 µM. Consider `Cc1ccc(S(=O)(=O)N[C@@H](CC(=O)NC(C)(C)C)C(=O)NC2(c3nc4c(F)cccc4[nH]3)CC2)cc1` [CEN-69, (S)—N^4-(tert-Butyl)-N^1-(1-(4-fluoro-1H-benzo[d]Imidazol-2-yl)cyclopropyl)-2-((4-methylphenyl)sulfonamido)succinamide], for which the IC50 is greater than 100 µM. The result for `Cc1ccc(S(=O)(=O)N[C@@H](CCC(=O)NC(C)(C)C)C(=O)NC2(c3nc4c(F)cccc4[nH]3)CC2)cc1` [CEN-70, (S)—N^5-(tert-Butyl)-N^1-(1-(4-fluoro-1H-benzo[d]Imidazol-2-yl)cyclopropyl)-2-((4-methylphenyl)sulfonamido)pentanediamide] reads greater than 100 µM. For the molecule `Cc1ccc(S(=O)(=O)N[C@H](C(=O)N[C@@H](C)c2nc3cccc(F)c3[nH]2)[C@@H](C)O)cc1` [CEN-71, (2S,3R)—N—((S)-1-(7-Fluoro-1H-benzo[d]imidazol-2-yl)ethyl)-3-hydroxy-2-((4-methylphenyl)sulfonamido)butanamide], the IC50 is greater than 100 µM. As for `C[C@H](NC(=O)[C@@H](NC(=O)CCc1ccc(F)cc1)[C@@H](C)O)c1nc2c(F)cccc2[nH]1` [CEN-72, (2S,3R)—N—((S)-1-(4-Fluoro-1H-benzo[d]imidazol-2-yl)ethyl)-2-(3-(4-fluorophenyl)propanamido)-3-hydroxybutanamide], the IC50 was greater than 100 µM. `CC(C)(C)NC(=O)CC[C@H](NC(=O)CCc1ccc(F)cc1)C(=O)NC1(c2nc3cccc(F)c3[nH]2)CC1` [CEN-73, (S)—N5-(tert-Butyl)-N1-(1-(7-fluoro-1H-benzo[d]Imidazol-2-yl)cyclopropyl)-2-(3-(4-fluorophenyl)propanamido)pentanediamide]: the IC50 was greater than 100 µM. `C[C@H](NC(=O)[C@@H](N)CC(=O)N1CCC[C@@H]1c1ccccc1)c1ncc(-c2ccccc2F)[nH]1` [CEN-74, (S)-2-Amino-N—((S)-1-(5-(2-fluorophenyl)-1H-imidazol-2-yl)ethyl)-4-oxo-4-((R)-2-phenylpyrrolidin-1-yl)butanamide]: the IC50 came to 94 µM. For `Cc1cc(C(=O)N[C@@H](CC(=O)N2CCC[C@@H]2c2ccccc2)C(=O)N[C@@H](C)c2ncc(-c3ccccc3F)[nH]2)no1` [CEN-75, N—((S)-1-(((S)-1-(5-(2-Fluorophenyl)-1H-imidazol-2-yl)ethyl)amino)-1,4-dioxo-4-((R)-2-phenylpyrrolidin-1-yl)butan-2-yl)-5-methylisoxazole-3-carboxamide], the IC50 is greater than 100 µM. `C[C@H](NC(=O)[C@@H](N)CC(=O)N1CCCC[C@@H]1C)c1ncc(-c2ccc(F)cc2F)[nH]1` [CEN-76, (S)-2-Amino-N—((S)-1-(5-(2,4-difluorophenyl)-1H-imidazol-2-yl)ethyl)-4-((S)-2-methylpiperidin-1-yl)-4-oxobutanamide]: the IC50 worked out at 14.2 µM.
